Data reported in patent publication US20240150293A1, “SPIROCYCLOHEXANE DERIVATIVES, PHARMACEUTICAL COMPOSITIONS CONTAINING THEM AND THEIR USES AS ANTI-APOPTOTIC INHIBITORS” (LES LABORATOIRES SERVIER, priority 2021, published 2024).

Target: Mcl-1 protein (UniProtKB Q07820) (Homo sapiens (Human), UniProt Q07820)
Assay: Inhibition of Mcl-1 by the fluorescence polarisation assay (Example A, Method A)
Format: binding
Conditions: fluorescence polarization assay
Description: The relative binding potency of each compound was determined via Fluorescence Polarisation (FP). The method utilised a Fluorescein labelled ligand (Fluorescein-βAla-Ahx-A-REIGAQLRRMADDLNAQY-OH; MW 2,765) which binds to the Mcl-1 protein (such that Mcl-1 corresponds to the UniProtKB® primary accession number: Q07820) leading to an increased anisotropy measured in milli-polarisation (mP) units using a reader. The addition of a compound which binds competitively to the same site as the ligand will result in a greater proportion of unbound ligand in the system indicated by a decrease in mP units.
An 11 point serial dilution of each compound was prepared in DMSO and 2 μl transferred into flat bottomed, low binding, 384-well plate (final DMSO concentration 5%). 38 μl of buffer containing the Fluorescein labelled ligand (final concentration 1 nM) and Mcl-1 protein (final concentration 5 nM) was then added. Buffer components were 10 mM 4-(2-hydroxyethyl)-1-piperazineethanesulfonic acid [HEPES], 150 mM NaCl, pH 7.4 with the addition of 0.05% Tween 20.
Assay plates were incubated for 2 hours at room temperature before FP was measured on a […] Synergy Neo reader ([…], Cut off 510 nm) and mP units calculated. The binding of increasing doses of test compound was expressed as a percentage reduction in mP compared to a window established between ‘5% DMSO only’ and ‘100% inhibition’ controls. 11-point dose response curves were plotted with XL-Fit software using a 4-Parameter Logistic Model (Sigmoidal Dose-Response Model) and the inhibitory concentrations that gave a 50% reduction in mP (IC50) were determined. The Ki values were determined from the IC50 values according to Cer et al, Nucleic Acids Res, 2009, 37 (WebServer issue): W441-W445. Inhibition constants (Ki) are determined from complete binding inhibition curves (cKi) or from estimated from incomplete binding inhibition curves (eKi) in most cases due to low activity.

Mcl-1 protein, sequence (Q07820 whole entry): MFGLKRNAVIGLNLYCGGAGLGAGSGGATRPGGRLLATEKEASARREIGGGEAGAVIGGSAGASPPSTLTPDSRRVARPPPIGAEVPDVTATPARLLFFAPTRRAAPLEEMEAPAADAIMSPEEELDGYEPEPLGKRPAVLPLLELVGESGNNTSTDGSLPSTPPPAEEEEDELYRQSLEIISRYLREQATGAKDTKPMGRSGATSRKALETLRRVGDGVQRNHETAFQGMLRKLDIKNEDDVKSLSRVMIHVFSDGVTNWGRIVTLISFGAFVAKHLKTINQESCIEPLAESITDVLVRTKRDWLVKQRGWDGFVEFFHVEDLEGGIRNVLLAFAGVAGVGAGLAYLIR

Work on `O=C(O)[C@]1(Nc2cccc(Cl)c2)CC[C@@]2(CC1)c1ccccc1C[C@H]2c1cccc(Cc2ccccc2)c1` [Example 325, (1r,2′S,4S)-2′-(3-benzylphenyl)-4-(3-chloroanilino)-2′,3′-dihydrospiro[cyclohexane-1,1′-indene]-4-carboxylic acid] yielded a Ki of 289 nM.
For `COc1cncnc1OCCCC1Cc2ccccc2[C@]12CC[C@@](Nc1cccc(Cl)c1)(C(=O)O)CC2` (stereo partly shown) [Example 438, (1r,4r)-4-(3-chloroanilino)-2′-{3-[(5-methoxypyrimidin-4-yl)oxy]propyl}-2′,3′-dihydrospiro[cyclohexane-1,1′-indene]-4-carboxylic acid], the Ki was 202 nM.
`COCCOc1cccc(C2=Cc3ccccc3[C@]23CC[C@@](Nc2cccc(Cl)c2)(C(=O)O)CC3)c1` [Example 315, (1s,4s)-4-(3-chloroanilino)-2′-[3-(2-methoxyethoxy)phenyl]spiro[cyclohexane-1,1′-indene]-4-carboxylic acid] showed a Ki of 546 nM.
For `O=C(O)[C@]1(Nc2cccc(Cl)c2)CC[C@@]2(CC1)c1ccccc1CC2CCCOc1ccccc1C(F)(F)F` (stereo partly shown) [Example 443, (1r,4r)-4-(3-chloroanilino)-2′-{3-[2-(trifluoromethyl)phenoxy]propyl}-2′,3′-dihydrospiro[cyclohexane-1,1′-indene]-4-carboxylic acid], the Ki was 106 nM.
`Cc1cc(Br)cc2c1N(C)C(=O)[C@]21CC[C@@](Nc2cccc(Br)c2)(C(=O)O)CC1` [Example 20, (1r,4r)-5′-bromo-4-(3-bromoanilino)-1′,7′-dimethyl-2′-oxo-1′,2′-dihydrospiro[cyclohexane-1,3′-indole]-4-carboxylic acid] gave a Ki of 25700 nM.
For `O=C(O)[C@]1(Nc2cccc(Cl)c2)CC[C@]2(CC1)C(c1ccc(-c3ccccc3)o1)=Cc1ccccc12` [Example 317, (1s,4s)-4-(3-chloroanilino)-2′-(5-phenylfuran-2-yl)spiro[cyclohexane-1,1′-indene]-4-carboxylic acid], the Ki was 942 nM.
For `CC1CCc2nccc(OCCCC3Cc4ccccc4[C@]34CC[C@@](Nc3cccc(Cl)c3)(C(=O)O)CC4)c21` (stereo partly shown) [Example 478, (1r,4r)-4-(3-chloroanilino)-2′-{3-[(5-methyl-6,7-dihydro-5H-cyclopenta[b]pyridin-4-yl)oxy]propyl}-2′,3′-dihydrospiro[cyclohexane-1,1′-indene]-4-carboxylic acid], the Ki was 29.7 nM.
`O=C(O)[C@]1(Nc2cccc(Cl)c2)CC[C@@]2(CC1)c1ccccc1CC2c1ccccc1` (single isomer, unassigned) [Example 327, (1r,4r)-4-(3-chloroanilino)-2′-phenyl-2′,3′-dihydrospiro[cyclohexane-1,1′-indene]-4-carboxylic acid] showed a Ki of 7140 nM.
`O=C(O)[C@]1(Nc2cccc(Cl)c2)CC[C@@]2(CC1)c1ccccc1C[C@@H]2c1cc2ccccc2o1` [Example 338, (1r,2′S,4S)-2′-(1-benzofuran-2-yl)-4-(3-chloroanilino)-2′,3′-dihydrospiro[cyclohexane-1,1′-indene]-4-carboxylic acid] gave a Ki of 5690 nM.
`Cn1cc(C2Cc3ccccc3[C@]23CC[C@](Nc2cccc(Br)c2)(C(=O)O)CC3)cn1` (stereo partly shown) [Example 213, (1s,4s)-4-(3-bromoanilino)-2′-(1-methyl-1H-pyrazol-4-yl)-2′,3′-dihydrospiro[cyclohexane-1,1′-indene]-4-carboxylic acid] was tested, and the Ki was 87300 nM.
Work on `COc1ccc(Cl)c(C2=Cc3ccccc3[C@]23CC[C@@](Nc2cccc(Cl)c2)(C(=O)O)CC3)c1` [Example 246, (1s,4s)-4-(3-chloroanilino)-2′-(2-chloro-5-methoxyphenyl)spiro[cyclohexane-1,1′-indene]-4-carboxylic acid] yielded a Ki of 4200 nM.
With `O=C(O)[C@]1(Nc2cccc(Cl)c2)CC[C@]2(CC1)C(c1ccc(OCc3ccccc3)cc1)=Cc1ccccc12` [Example 309, (1s,4s)-2′-[4-(benzyloxy)phenyl]-4-(3-chloroanilino)spiro[cyclohexane-1,1′-indene]-4-carboxylic acid] the Ki was 732 nM.
In the case of `COc1cccc(N2Cc3ccccc3[C@]23CC[C@](Nc2cccc(Br)c2)(C(=O)O)CC3)c1` [Example 31, (1r,4r)-4-(3-bromoanilino)-2′-(3-methoxyphenyl)-2′,3′-dihydrospiro[cyclohexane-1,1′-isoindole]-4-carboxylic acid], the Ki is reported as 36300 nM.
For `O=C(O)[C@]1(Nc2cccc(Cl)c2)CC[C@]2(CC1)C(CCCCOc1ccccc1)=Cc1ccccc12` [Example 160, (1r,4r)-4-(3-chloroanilino)-2′-(4-phenoxybutyl)spiro[cyclohexane-1,1′-indene]-4-carboxylic acid], the Ki was 768 nM.
In the case of `CC1=C(C)[C@]2(CC[C@](Nc3cccc(Br)c3)(C(=O)O)CC2)c2ccccc21` [Example 202, (1r,4r)-4-(3-bromoanilino)-2′,3′-dimethylspiro[cyclohexane-1,1′-indene]-4-carboxylic acid], the Ki is reported as 300 nM.
`Cc1ccc(C)c2c1CC(C)C21CCC(Nc2cccc(Br)c2)(C(=O)O)CC1` (stereo not shown) [Example 123, 4-(3-bromoanilino)-2′,4′,7′-trimethyl-2′,3′-dihydrospiro[cyclohexane-1,1′-indene]-4-carboxylic acid] gave a Ki of 6400 nM.
Work on `O=C(O)[C@]1(Nc2cccc(Cl)c2)CC[C@@]2(CC1)c1ccccc1CC2CC(COCCN1CCOCC1)COc1ccnc2c1CCC2` (single isomer, unassigned) [Example 495, (1r,4r)-4-(3-chloroanilino)-2′-(2-{[(6,7-dihydro-5H-cyclopenta[b]pyridin-4-yl)oxy]methyl}-3-[2-(morpholin-4-yl)ethoxy]propyl)-2′,3′-dihydrospiro[cyclohexane-1,1′-indene]-4-carboxylic acid] yielded a Ki of 11.4 nM.
For `COc1ccc2c(c1)[C@]1(CC[C@](Nc3cccc(Br)c3)(C(=O)O)CC1)C1(CCCC1)C2` [Example 94, (1s,4s)-4-(3-bromoanilino)-6′-methoxy-3′H-dispiro[cyclohexane-1,1′-indene-2′,1″-cyclopentane]-4-carboxylic acid], the Ki was 129000 nM.
`CN1c2ccc(-c3ccccc3)cc2[C@]2(CC[C@](Nc3cccc(Br)c3)(C(=O)O)CC2)C1=O` [Example 10, (1r,4r)-4-(3-bromoanilino)-1′-methyl-2′-oxo-5′-phenyl-1′,2′-dihydrospiro[cyclohexane-1,3′-indole]-4-carboxylic acid] was tested, and the Ki was 10700 nM.
For `C=CCOC1Cc2ccccc2[C@]12CC[C@@](Nc1cccc(Br)c1)(C(=O)O)CC2` (stereo partly shown) [Example 121, (1s,4s)-4-(3-bromoanilino)-2′-[(prop-2-en-1-yl)oxy]-2′,3′-dihydrospiro[cyclohexane-1,1′-indene]-4-carboxylic acid], the Ki was 1550 nM.
With `COc1ccc2c(c1)[C@]1(CC[C@](Nc3cccc(Br)c3)(C(=O)O)CC1)C(C)(C)C2` [Example 128, (1s,4s)-4-(3-bromoanilino)-6′-methoxy-2′,2′-dimethyl-2′,3′-dihydrospiro[cyclohexane-1,1′-indene]-4-carboxylic acid] the Ki was 46200 nM.
Work on `O=C(O)[C@]1(Nc2cccc(Cl)c2)CC[C@]2(CC1)C(c1cccc(OCc3ccccc3)c1)=Cc1ccccc12` [Example 302, (1s,4s)-2′-[3-(benzyloxy)phenyl]-4-(3-chloroanilino)spiro[cyclohexane-1,1′-indene]-4-carboxylic acid] yielded a Ki of 1510 nM.
For `Cc1cccc(C)c1C1=Cc2ccccc2[C@]12CC[C@@](Nc1cccc(Cl)c1)(C(=O)O)CC2` [Example 249, (1s,4s)-4-(3-chloroanilino)-2′-(2,6-dimethylphenyl)spiro[cyclohexane-1,1′-indene]-4-carboxylic acid], the Ki was 19000 nM.
`O=C(O)[C@]1(Nc2cccc(Cl)c2)CC[C@]2(CC1)C(=C1CCCC1)Cc1ccccc12` [Example 93, (1r,4r)-4-(3-chloroanilino)-2′-cyclopentylidene-2′,3′-dihydrospiro[cyclohexane-1,1′-indene]-4-carboxylic acid] was tested, and the Ki was 7310 nM.
`COc1cc(OCCC2Cc3ccccc3[C@]23CC[C@@](Nc2cccc(Cl)c2)(C(=O)O)CC3)ccn1` (stereo partly shown) [Example 174, (1r,4r)-4-(3-chloroanilino)-2′-{2-[(2-methoxypyridin-4-yl)oxy]ethyl}-2′,3′-dihydrospiro[cyclohexane-1,1′-indene]-4-carboxylic acid] gave a Ki of 138 nM.
For `CN1c2ccccc2C2(CCC(Nc3cccc(Br)c3)(C(=O)O)CC2)C1CCc1ccccc1` (single isomer, unassigned) [Example 25, 4-(3-bromoanilino)-1′-methyl-2′-(2-phenylethyl)-1′,2′-dihydrospiro[cyclohexane-1,3′-indole]-4-carboxylic acid], the Ki was 887 nM.
In the case of `COc1ccc(C2=Cc3ccccc3[C@]23CC[C@](Nc2cccc(Cl)c2)(C(=O)O)CC3)c(C)c1` [Example 228, (1r,4r)-4-(3-chloroanilino)-2′-(4-methoxy-2-methylphenyl)spiro[cyclohexane-1,1′-indene]-4-carboxylic acid], the Ki is reported as 14700 nM.
`O=C(O)C1(Nc2cccc(Br)c2)CCC2(C=Cc3cccc(Br)c32)CC1` (single isomer, unassigned) [Example 59, 7′-bromo-4-(3-bromoanilino)spiro[cyclohexane-1,1′-indene]-4-carboxylic acid] showed a Ki of 4210 nM.
